Patent US20140249135A1, “PIM KINASE INHIBITORS AND METHODS OF THEIR USE” (NOVARTIS AG, priority 2007, published 2014)

How the values were obtained:
Format in all cases: biochemical
Pim2 kinase = Pim2 kinase (Homo sapiens, UniProt Q9P1W9); assay: Pim2 ATP depletion assay; details: read-out: PIM2 IC50;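 also: Luciferase-based luminescent readout of ATP remaining after PIM2 phosphorylates a BAD peptide, final 5 nM enzyme, 4 µM ATP, 10 µM peptide, 2.5% DMSO, run to roughly half ATP consumption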
Pim1 kinase = Pim1 kinase (Homo sapiens, UniProt P11309); assay: Pim1 ATP depletion assay; details: Pim1 ATP depletion assay; read-out: PIM1 IC50;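 also: Luciferase-luciferin luminescence readout of residual ATP after PIM1 transfers phosphate to a peptide substrate, 40 µM ATP added, reaction run to roughly half ATP consumption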
Pim1 kinase, sequence (P11309 whole entry): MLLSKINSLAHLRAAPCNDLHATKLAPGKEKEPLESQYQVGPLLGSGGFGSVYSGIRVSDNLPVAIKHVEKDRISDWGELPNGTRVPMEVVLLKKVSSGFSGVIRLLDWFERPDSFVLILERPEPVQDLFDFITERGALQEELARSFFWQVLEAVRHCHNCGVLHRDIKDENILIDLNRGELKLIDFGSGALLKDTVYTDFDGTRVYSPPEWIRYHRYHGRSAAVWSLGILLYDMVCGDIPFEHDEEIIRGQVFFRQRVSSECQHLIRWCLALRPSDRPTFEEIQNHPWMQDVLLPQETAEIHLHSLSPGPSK

Pim3 kinase = Pim3 kinase (Homo sapiens, UniProt Q86V86); assay: Pim3 ATP depletion assay; details: read-out: PIM3 IC50

Measured: IC50

Pim2 kinase, sequence (Q9P1W9 whole entry): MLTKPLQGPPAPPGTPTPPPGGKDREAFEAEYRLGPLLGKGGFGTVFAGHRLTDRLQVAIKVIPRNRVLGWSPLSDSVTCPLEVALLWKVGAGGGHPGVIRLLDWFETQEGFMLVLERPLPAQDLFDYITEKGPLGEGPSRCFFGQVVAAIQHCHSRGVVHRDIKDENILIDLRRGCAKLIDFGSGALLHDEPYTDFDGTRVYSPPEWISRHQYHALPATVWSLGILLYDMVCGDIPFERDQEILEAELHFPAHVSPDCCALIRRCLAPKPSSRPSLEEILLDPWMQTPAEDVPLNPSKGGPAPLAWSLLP

CCC(CC)c1ccc(N)c(C(=O)Nc2cnccc2N2CCC[C@H](N)C2)n1 [Example 634, 3-Amino-6-(1-ethyl-propyl)-pyridine-2-carboxylic acid (3-amino-3,4,5,6-tetrahydro-2H-[1,4′]bipyridinyl-3′-yl)-amide]
< 1 µM: all assays above

N[C@H]1CCCN(c2ccncc2NC(=O)c2cccc(C3CCCCC3)n2)C1 [Example 635, 6-Cyclohexyl-pyridine-2-carboxylic acid (3-amino-3,4,5,6-tetrahydro-2H-[1,4′]bipyridinyl-3′-yl)-amide]
< 1 µM: all assays above

Cc1ccc(N)c(C(=O)Nc2cnccc2N2CCC[C@H](N)C2)n1 [Example 637, 3-amino-N-{4-[(3S)-3-aminopiperidin-1-yl]pyridin-3-yl}-6-methylpyridine-2-carboxamide]
< 1 µM: all assays above

Nc1ccc(C2CC2)nc1C(=O)Nc1cnccc1N1CCC[C@H](N)C1 [Example 638, 3-amino-N-{4-[(3S)-3-aminopiperidin-1-yl]pyridin-3-yl}-6-cyclopropyl-pyridine-2-carboxamide]
< 1 µM: all assays above

CCc1ccc(N)c(C(=O)Nc2cnccc2N2CCC[C@H](N)C2)n1 [Example 639, 3-amino-N-{4-[(3S)-3-aminopiperidin-1-yl]pyridin-3-yl}-6-ethylpyridine-2-carboxamide]
< 1 µM: all assays above

Nc1cc(-c2ccncc2NC(=O)c2nc(-c3nccs3)ccc2N)cc(C(F)(F)F)n1 [Example 640, 3-amino-N-[2′-amino-6′-(trifluoromethyl)-4,4′-bipyridin-3-yl]-6-(1,3-thiazol-2-yl)pyridine-2-carboxamide]
< 1 µM: all assays above

Cc1cc(-c2ccncc2NC(=O)c2nc(-c3nccs3)ccc2N)cc(N)n1 [Example 641, 3-amino-N-(2′-amino-6′-methyl-4,4′-bipyridin-3-yl)-6-(1,3-thiazol-2-yl)pyridine-2-carboxamide]
< 1 µM: all assays above

Nc1cc(-c2ccncc2NC(=O)c2nc(-c3nccs3)ccc2N)nc(C(F)(F)F)n1 [Example 642, 3-amino-N-{4-[6-amino-2-(trifluoromethyl)pyrimidin-4-yl]pyridin-3-yl}-6-(1,3-thiazol-2-yl)pyridine-2-carboxamide]
< 1 µM: all assays above

Cc1nc(N)cc(-c2ccncc2NC(=O)c2nc(-c3nccs3)ccc2N)n1 [Example 643, 3-amino-N-[4-(6-amino-2-methylpyrimidin-4-yl)pyridin-3-yl]-6-(1,3-thiazol-2-yl)pyridine-2-carboxamide]
< 1 µM: all assays above

Nc1ccc(C23CC4CC(CC(C4)C2)C3)nc1C(=O)Nc1cnccc1N1CCC[C@H](N)C1 [Example 645, 6-Adamantan-1-yl-3-amino-pyridine-2-carboxylic acid (3-amino-3,4,5,6-tetrahydro-2H-[1,4′]bipyridinyl-3′-yl)-amide]
< 1 µM: all assays above

Nc1cc(-c2ccncc2NC(=O)c2cccc(-c3nccs3)n2)nc(C(F)(F)F)n1 [Example 647, N-{4-[6-amino-2-(trifluoro-methyl)pyrimidin-4-yl]-pyridin-3-yl}-6-(1,3-thiazol-2-yl)pyridine-2-carboxamide]
< 1 µM: all assays above

CC(C)NC(=O)c1ccc(F)c(-c2ccc(N)c(C(=O)Nc3cnccc3N3CCC[C@H](O)C3)n2)c1 [Example 651, 3-Amino-6-(2-fluoro-5-isopropylcarbamoyl-phenyl)-pyridine-2-carboxylic acid (3-hydroxy-3,4,5,6-tetrahydro-2H-[1,4′]bipyridinyl-3′-yl)-amide]
< 1 µM: all assays above

CC(C)Oc1ccc(F)c(-c2ccc(N)c(C(=O)Nc3cnccc3N3CCC[C@H](O)C3)n2)c1F [Example 652, 3-Amino-6-(2,6-difluoro-3-isopropoxy-phenyl)-pyridine-2-carboxylic acid (3-hydroxy-3,4,5,6-tetrahydro-2H-[1,4′]bi-pyridinyl-3′-yl)-amide]
< 1 µM: all assays above

Nc1ccc(-c2c(F)cccc2F)nc1C(=O)Nc1cnccc1N1CCC[C@H](O)C1 [Example 653, 3-Amino-6-(2,6-difluoro-phenyl)-pyridine-2-carboxylic acid (3-hydroxy-3,4,5,6-tetra-hydro-2H-[1,4′]bipyridinyl-3′-yl)-amide]
< 1 µM: all assays above

Cc1cc(F)c(-c2ccc(N)c(C(=O)Nc3cnccc3N3CCCC(O)C3)n2)cc1Cl (stereo not drawn) [Example 654, 3-Amino-6-(5-chloro-2-fluoro-4-methyl-phenyl)-pyridine-2-carboxylic acid (3-hydroxy-3,4,5,6-tetrahydro-2H-[1,4′]bi-pyridinyl-3′-yl)-amide]
< 1 µM: all assays above

Nc1ccc(-c2cccc(Cl)c2F)nc1C(=O)Nc1cnccc1N1CCCC(O)C1 (stereo not drawn) [Example 655, 3-Amino-6-(3-chloro-2-fluoro-phenyl)-pyridine-2-carboxylic acid (3-hydroxy-3,4,5,6-tetra-hydro-2H-[1,4′]bipyridinyl-3′-yl)-amide]
< 1 µM: all assays above

Nc1ccc(-c2cc(C(=O)Nc3ccccc3)ccc2F)nc1C(=O)Nc1cnccc1N1CCCC(O)C1 (stereo not drawn) [Example 656, 3-Amino-6-(2-fluoro-5-phenyl-carbamoyl-phenyl)-pyridine-2-carboxylic acid (3-hydroxy-3,4,5,6-tetrahydro-2H-[1,4′]bi-pyridinyl-3′-yl)-amide]
< 1 µM: all assays above

CN(C)C(=O)c1ccc(F)c(-c2ccc(N)c(C(=O)Nc3cnccc3N3CCCC(O)C3)n2)c1 (stereo not drawn) [Example 657, 3-Amino-6-(5-dimethyl-carbamoyl-2-fluoro-phenyl)-pyridine-2-carboxylic acid (3-hydroxy-3,4,5,6-tetrahydro-2H-[1,4′]bipyridinyl-3′-yl)-amide]
< 1 µM: all assays above

Nc1ccc(-c2c(F)cccc2F)nc1C(=O)Nc1cnccc1N1CCCC(O)C1 (stereo not drawn) [Example 658, 3-Amino-6-(2,6-difluoro-phenyl)-pyridine-2-carboxylic acid (3-hydroxy-3,4,5,6-tetra-hydro-2H-[1,4′]bipyridinyl-3′-yl)-amide]
< 1 µM: all assays above

Nc1ccc(-c2ccccc2F)nc1C(=O)Nc1cnccc1N1CCC[C@@H](O)C1 [Example 659, 3-Amino-6-(2-fluoro-phenyl)-pyridine-2-carboxylic acid (3-hydroxy-3,4,5,6-tetrahydro-2H-[1,4′]bipyridinyl-3′-yl)-amide]
< 1 µM: all assays above

Nc1ccc(-c2ccccc2F)nc1C(=O)Nc1cnccc1N1CCC[C@H](O)C1 [Example 660, 3-Amino-6-(2-fluoro-phenyl)-pyridine-2-carboxylic acid (3-hydroxy-3,4,5,6-tetrahydro-2H-[1,4′]bipyridinyl-3′-yl)-amide]
< 1 µM: all assays above

Nc1ccc(-c2ccccc2F)nc1C(=O)Nc1cnccc1N1CCCC(O)C1 (stereo not drawn) [Example 661, 3-Amino-6-(2-fluoro-phenyl)-pyridine-2-carboxylic acid (3-hydroxy-3,4,5,6-tetrahydro-2H-[1,4′]bipyridinyl-3′-yl)-amide]
< 1 µM: all assays above

CC(C)Oc1ccc(F)c(-c2nc(C(=O)Nc3cnccc3N3CC[C@@H](O)[C@H](N)C3)c(N)cc2F)c1F [Example 664, 3-Amino-6-(2,6-difluoro-3-isopropoxy-phenyl)-5-fluoro-pyridine-2-carboxylic acid (3-amino-4-hydroxy-3,4,5,6-tetra-hydro-2H-[1,4′]bipyridinyl-3′-yl)-amide]
< 1 µM: all assays above

CC(C)Oc1ccc(F)c(-c2nc(C(=O)Nc3cnccc3N3CC[C@@H](N)[C@H](O)C3)c(N)cc2F)c1F [Example 666, 3-Amino-6-(2,6-difluoro-3-isopropoxy-phenyl)-5-fluoro-pyridine-2-carboxylic acid (4-amino-3-hydroxy-3,4,5,6-tetra-hydro-2H-[1,4′]bipyridinyl-3′-yl)-amide]
< 1 µM: all assays above

CC(C)NC(=O)c1ccc(F)c(-c2ccc(N)c(C(=O)Nc3cnccc3N3CC[C@@H](N)[C@H](O)C3)n2)c1 [Example 668, 3-Amino-6-(2-fluoro-5-isopropylcarbamoyl-phenyl)-pyridine-2-carboxylic acid (4-amino-3-hydroxy-3,4,5,6-tetra-hydro-2H-[1,4′]bipyridinyl-3′-yl)-amide]
< 1 µM: all assays above

Nc1ccc(-c2nccs2)nc1C(=O)Nc1cnccc1N1CC[C@@H](O)[C@H](N)C1 [Example 669, 3-Amino-6-thiazol-2-yl-pyridine-2-carboxylic acid (3-amino-4-hydroxy-3,4,5,6-tetra-hydro-2H-[1,4′]bipyridinyl-3′-yl)-amide]
< 1 µM: all assays above

CC(C)NC(=O)c1ccc(F)c(-c2ccc(N)c(C(=O)Nc3cnccc3N3CC[C@@H](O)[C@H](N)C3)n2)c1 [Example 671, 3-Amino-6-(2-fluoro-5-isopropylcarbamoyl-phenyl)-pyridine-2-carboxylic acid (3-amino-4-hydroxy-3,4,5,6-tetra-hydro-2H-[1,4′]bipyridinyl-3′-yl)-amide]
< 1 µM: all assays above
